{
  "source": "patent US9463256B2",
  "about": "“Pretargeting kit, method and agents used therein” (KONINKLIJKE PHILIPS N.V., priority 2010, dated 2016)",
  "key": {"[1]": {"assay": "Trans-cyclooctene stability in vivo (blood samples reacted with excess ^111In-tetrazine 28)", "design": "species or system mice", "conditions": "tumor-free mice, up to 4 days post injection", "description": "Tumor-free mice (n=3 per group) were injected intravenously with CC49-PEG10-TCO-O major (CC49-23a; 8.4 TCO per CC49; 300 μg/100 μL per mouse), CC49-PEG10-TCO-C minor (CC49-27b; 3.3 TCO per CC49, […]), and CC49-TCO-O major without spacer (CC49-20a; 8.0 TCO per CC49, 300 μg/100 μL per mouse). At selected time points (from 1 hour up to 4 days post injection) blood samples were withdrawn from the vena saphena and collected in vials containing heparin. The blood samples were weighed and an excess ^111In-tetrazine 28 was added. After 20 min incubation at 37° C., blood aliquots were 10-fold diluted with PBS and analyzed by SDS-PAGE. The cycloaddition yields were determined from the radioactivity in the bands corresponding to the mAb and the counts were quantified with AIDA Image Analyzer software. The amount of mAb present in blood at each time point (% ID/g blood) was evaluated in three separate groups of mice (n=3), which were injected with the corresponding ^125I—CC49-TCO (300 μg/100 μL per mouse, ca. 0.2 MBq). The data, corrected for mAb clearance, were normalized to 100% ID TCO at t=0.\nThis experiment was carried out to expand the series of in vivo TCO stability measurements described in Example 6. […] In the new experiment, following the same procedure, we tested the in vivo stability of a CC49-bound TCO minor without PEG spacer (20b, 6.9 equivalents bound)."}, "[2]": {"assay": "In vitro reaction yields of CC49-bound TCO with tetrazine probe 28 at low concentration", "type": "physicochemical", "conditions": "TCO conjugated to CC49; 1 min at 37° C. in PBS; micromolar concentrations and lower", "description": "To this aim we used a TCO major 20a (k2=19600±1400 M^−1s^−1) and a TCO minor 20b (k2=136700±2300 M^−1s^−1) conjugated to CC49 (6.1 and 6.6 TCOs per molecule for major and minor, respectively). The two mAb solutions were diluted in PBS to obtain TCO concentrations ranging from 1×10^−5M to 1×10^−8M and were reacted with carrier-added ^177Lu-tetrazine (1 eq. with respect to mAb) for 1 min at 37° C. Aliquots of the reaction mixtures (20 μl) where then quenched with an excess of tetrazine 6, added with non-reducing sample buffer and analyzed by SDS-PAGE. The cycloaddition yields were determined from the radioactivity in the bands corresponding to the mAb and the counts were quantified with the AIDA Image Analyzer software. The experiments were repeated in triplicate. As expected for a bimolecular reaction, a decrease in the concentration of the two reactive species in solution translates into lower reaction yields after 1 min incubation (FIG. 18)."}, "[3]": {"assay": "Second order kinetic constants of the reactions between CC49-TCO constructs and ^177Lu-28", "type": "physicochemical", "conditions": "TCO conjugated to CC49, reaction with ^177Lu-28 in PBS, pH 7.4 at 37° C.", "description": "Typically, 1 mg CC49 (5 mg/mL solution in PBS) was modified with 0.6 molar (for kinetic measurements) or 10 molar eq. (for in vivo studies) of TCO-NHS constructs in a total volume of 250 μL PBS. The pH was adjusted to 9 with 1 M sodium carbonate buffer. The reactions were carried out under agitation for 30 min at RT in the dark. Subsequently, the TCO-modified mAbs were extensively washed with PBS using Amicon Ultra-15 centrifugal devices. The numbers of TCO groups per antibody were determined with a tetrazine titration, outlined below.\nTetrazine-DOTA 28 was radiolabeled with carrier-added ^177Lu. mAb (25 μg) modified with ca. 0.6 molar eq. TCO was reacted with 3 molar eq. of ^177Lu-28 (0.5 nM). mAb (25 μg) modified with ca. 10 molar eq. TCO was reacted with 15 molar eq. of ^177Lu-28 (2.5 nM). The reactions were carried out in 50 μL PBS pH 7.4 at 37° C. for 10 min. The reaction mixtures were analyzed by SDS-PAGE and phosphor imager and the reaction yields were determined from the radioactivity in the bands corresponding to the mAb. The counts were quantified with AIDA Image Analyzer software (Raytest).\nTetrazine-DOTA 28 was radiolabeled with carrier-added ^177Lu at a specific activity of 3 MBq/μg. ^177Lu-28 (33 nM) was reacted with increasing concentrations of CC49 modified with 1 eq. of TCO (0.33, 1, and 1.67 μM) in 200 μL PBS, pH 7.4 at 37° C. for 5 min. At selected times (15, 30, 45, 60, 90, 120, 180, and 300 sec) a 20 μL sample was withdrawn and quenched with tetrazine 6 (FIG. 5; described in Rossin et al. Angew Chem Int Ed 2010, 49, 3375) (1.5 μL, 5 mg/mL in DMF). Aliquots of each mixture were analyzed by SDS-PAGE and phosphor imager and the cycloaddition yields were determined from the radioactivity in the bands corresponding to the mAb. The counts were quantified with AIDA Image Analyzer software (Raytest).\nThe newly synthesized TCO constructs were evaluated with respect to their reactivity towards tetrazine 28. The procedures are described in Example 5."}, "[4]": {"assay": "Reactivity of tetrazines, competition experiment against reference tetrazine", "type": "physicochemical", "conditions": "reference 3-(5-acetamido-2-pyridyl)-6-(2-pyridyl)-1,2,4,5-tetrazine; reaction with 10b", "description": "A competition experiment was performed to determine the reactivity ratio of a specific tetrazine and 3-(5-acetamido-2-pyridyl)-6-(2-pyridyl)-1,2,4,5-tetrazine (that was chosen as the reference tetrazine), in the inverse-electron demand Diels-Alder reaction with trans-cyclooct-4-ene-1-ol (minor isomer, 10b).\nTo acetonitrile (0.100 mL) was added 5 μL of a solution of the specific tetrazine in DMSO (25 mM) and 5 μL of a solution of the reference tetrazine in DMSO (25 mM). This mixture was diluted with water (0.9 mL), and the absolute amounts of both tetrazines were determined by LC-MS/PDA analysis. Subsequently, a solution of trans-cyclooct-4-ene-1-ol (minor isomer, 10b) in DMSO (25 μL 2.5 mM) was added, and the mixture was stirred for 5 min. Again, the absolute amounts of both tetrazines were determined by LC-MS/PDA analysis, and conversions for both tetrazines was calculated. From these conversions, the reactivity ratio of both tetrazines was determined."}},
  "data": [
    {"compound": "O=C(ON1C(=O)CCC1=O)c1ccc(COC2CC/C=C/CCC2)cc1", "note": "(stereo not shown) [20b, (E-minor)-2,5-Dioxopyrrolidin-1-yl 4-((cyclooct-4-enyloxy)methyl)benzoate]", "values": [
      {"measurement": "in vivo stability of CC49-bound TCO (reactive TCO in blood, corrected for mAb clearance)", "setting": "[1]", "value": "only slowly degrade in vivo"},
      {"measurement": "reaction yields with ^177Lu-tetrazine versus equatorial TCO 20a", "setting": "[2]", "value": "significantly higher"}
    ]},
    {"compound": "O=C(CCOCCOCCOCCOCCOCCOCCOCCOCCOCCOCCOCCOCCNC(=O)c1ccc(COC2CC/C=C/CCC2)cc1)ON1C(=O)CCC1=O", "note": "(stereo not shown) [23a, (E-major)-2,5-Dioxopyrrolidin-1-yl 1-(4-((cyclooct-4-en-1-yloxy)methyl)phenyl)-1-oxo-5,8,11,14,17,20,23,26,29,32,35,38-dodecaoxa-2-azahentetracontan-41-oate]", "values": [
      {"measurement": "in vivo stability of CC49-bound TCO (reactive TCO in blood, corrected for mAb clearance)", "setting": "[1]", "value": "unstable in vivo"},
      {"measurement": "Second order kinetic constant, PEG10 Spacer", "setting": "[3]", "value": "(23a) 16500 ± 1400 M^−1s^−1"}
    ]},
    {"compound": "O=C(CCOCCOCCOCCOCCOCCOCCOCCOCCOCCOCCOCCOCCNC(=O)c1ccc(NC(=O)OC2CC/C=C/CCC2)cc1)ON1C(=O)CCC1=O", "note": "(stereo not shown) [27b, (E-minor)-2,5-dioxopyrrolidin-1-yl 1-(4-(((cyclooct-4-en-1-yloxy)carbonyl)amino)phenyl)-1-oxo-5,8,11,14,17,20,23,26,29,32,35,38-dodecaoxa-2-azahentetracontan-41-oate]", "values": [
      {"measurement": "in vivo stability of CC49-bound TCO (reactive TCO in blood, corrected for mAb clearance)", "setting": "[1]", "value": "unstable in vivo"},
      {"measurement": "Second order kinetic constant, PEG10 Spacer", "setting": "[3]", "value": "(27b) 111600 ± 1800 M^−1s^−1"}
    ]},
    {"compound": "CCCC(=O)Nc1ccc(-c2nnc(-c3ccc(C(F)(F)F)cn3)nn2)nc1", "note": "[compound 35, 3-(5-Butyramido-2-pyridyl)-6-(5-(trifluoromethyl)-2-pyridyl)-1,2,4,5-tetrazine]", "values": [
      {"measurement": "k2/k2 ref", "setting": "[4]", "value": 1.84}
    ]},
    {"compound": "CCCC(=O)Nc1ccc(-c2nnc(-c3ccc(F)cn3)nn2)nc1", "note": "[compound 38, 3-(5-Fluoro-2-pyridyl)-6-(5-butanamido-2-pyridyl)-1,2,4,5-tetrazine]", "values": [
      {"measurement": "k2/k2 ref", "setting": "[4]", "value": 0.95}
    ]},
    {"compound": "Cc1nnc(-c2ccccn2)nn1", "note": "[compound 40, 3-(2-Pyridyl)-6-methyl-1,2,4,5-tetrazine]", "values": [
      {"measurement": "k2/k2 ref", "setting": "[4]", "value": 0.25}
    ]},
    {"compound": "c1cc(-c2nnc(-c3ccncc3)nn2)ccn1", "note": "[compound 42, 3,6-Bis(4-pyridyl)-1,2,4,5-tetrazine]", "values": [
      {"measurement": "k2/k2 ref", "setting": "[4]", "value": 0.83}
    ]}
  ]
}
